Patent US20080255155A1, “KINASE INHIBITORS AND USES THEREOF” (priority 2006, published 2008)

What was measured:
[1] = target: T1, recombinant human c-Met/HGF receptor (Homo sapiens, UniProt P08581); test: In vitro receptor tyrosine kinase assay, c-Met (DELFIA); format: biochemical; details: ATP 10 uM, enzyme 25 nM; read-out: Potency in enzyme assays Cmet
T1 construct: His tag; made in house; host or cells: Hi-5 cells (Trichoplusia ni), recombinant baculovirus
From the text: (§1) These tests measure the ability of compounds to inhibit the enzymatic activity of recombinant human c-Met/HGF receptor and VEGF receptor enzymatic activity.
A 1.3-kb cDNA corresponding to the intracellular domain of c-Met or c-Met IC (Genbank accession number NP000236-1 amino acid […]) is cloned into the BamHI/XhoI sites of the pBlueBacHis2A vector (Invitrogen) for the production of a histidine-tagged version of that enzyme. This construct is used to generate recombinant baculovirus using the Bac-N-Blue™ system according to the manufacturer's instructions (Invitrogen).
(§2) The c-Met IC protein is expressed in Hi-5 cells (Trichoplusia Ni) upon infection with recombinant baculovirus construct. Briefly, Hi-5 cells grown in suspension and maintained in serum-free medium (Sf900 II supplemented with gentamycin) at a cell density of about 2×10^6 cells/ml are infected with the above-mentioned viruses at a multiplicity of infection (MOI) of 0.2 during 72 hours at 27° C. with agitation at 120 rpm on a rotary shaker. Infected cells are harvested by centrifugation at 398 g for 15 min. Cell pellets are frozen at −80° C. until purification is performed.
All steps described in cell extraction and purification are performed at 4° C. Frozen Hi-5 cell pellets infected with the C-Met IC recombinant baculovirus are thawed and gently resuspended in Buffer A (20 mM Tris pH 8.0, 10% glycerol, 1 μg/ml pepstatin, 2 μg/ml Aprotinin and leupeptin, 50 μg/ml PMSF, 50 μg/ml TLCK and 10 μM E64, 0.5 mM DTT and 1 mM Levamisole) using 3 ml of buffer per gram of cells. The suspension is Dounce homogenized after which it is centrifuged at 22500 g, 30 min., 4° C. The supernatant (cell extract) is used as starting material for purification of c-Met IC.
The supernatant is loaded onto a QsepharoseFF column (Amersham Biosciences) equilibrated with Buffer B (20 mM Tris pH 8.0, 10% glycerol) supplemented with 0.05M NaCl. Following a ten column volume (CV) wash with equilibration buffer, bound proteins are eluted with a 5 CV salt linear gradient spanning from 0.05 to 1M NaCl in Buffer B. Typically, the conductivity of selected fractions rank between 6.5 and 37 mS/cm. This Qsepharose eluate has an estimated NaCl concentration of 0.33M and is supplemented with a 5M NaCl solution in order to increase NaCl concentration at 0.5M and also with a 5M Imidazole (pH 8.0) solution to achieve a final imidazole concentration of 15 mM. This material is loaded onto a HisTrap affinity column (GE Healthcare) equilibrated with Buffer C (50 mM NaPO4 pH 8.0, 0.5M NaCl, 10% glycerol) supplemented with 15 mM imidazole. After a 10 CV wash with equilibration buffer and an 8 CV wash with buffer C+40 mM imidazole, bound proteins are eluted with an 8 CV linear gradient (15 to 500 mM) of imidazole in buffer C. C-Met IC enriched fractions from this chromatography step are pooled based on SDS-PAGE analysis. This pool of enzyme undergoes buffer exchange using PD-10 column (GE Healthcare) against buffer D (25 mM HEPES pH 7.5, 0.1M NaCl, 10% glycerol and 2 mM β-mercaptoethanol). Final C-Met IC protein preparations concentrations are about 0.5 mg/ml with purity approximating 80%. Purified c-Met IC protein stocks are supplemented with BSA at 1 mg/ml, aliquoted and frozen at −80° C. prior to use in enzymatic assay.
Inhibition of c-Met/HGF receptor and VEGFR/KDR is measured in a DELFIA™ assay (Perkin Elmer). The substrate poly(Glu4,Tyr) is immobilized onto black high-binding polystyrene 96-well plates. The coated plates are washed and stored at 4° C. During the assay, enzymes are pre-incubated with inhibitor and Mg-ATP on ice in polypropylene 96-well plates for 4 minutes, and then transferred to the coated plates. The subsequent kinase reaction takes place at 30° C. for 10-30 minutes. ATP concentrations in the assay are 10 uM for C-Met (5× the Km) and 0.6 uM for VEGFR/KDR (2× the Km). Enzyme concentration is 25 nM (C-Met) or 5 nM (VEGFR/KDR). […]

A549 = A549 wound healing inhibition; details: Homo sapiens; A549 cells; read-out: Potency in cell-based assays A549 wound healing inhibition
VEGF receptor KDR = target: T2, VEGF receptor KDR (Homo sapiens, UniProt P35968); test: In vitro receptor tyrosine kinase assay, VEGF receptor KDR (DELFIA); format: biochemical; details: ATP 0.6 uM, enzyme 5 nM; read-out: Potency in enzyme assays VEGF
T2 construct: made in house; host or cells: Sf9 cells (Spodoptera frugiperda), recombinant baculovirus
T2 sequence (P35968 806-1356): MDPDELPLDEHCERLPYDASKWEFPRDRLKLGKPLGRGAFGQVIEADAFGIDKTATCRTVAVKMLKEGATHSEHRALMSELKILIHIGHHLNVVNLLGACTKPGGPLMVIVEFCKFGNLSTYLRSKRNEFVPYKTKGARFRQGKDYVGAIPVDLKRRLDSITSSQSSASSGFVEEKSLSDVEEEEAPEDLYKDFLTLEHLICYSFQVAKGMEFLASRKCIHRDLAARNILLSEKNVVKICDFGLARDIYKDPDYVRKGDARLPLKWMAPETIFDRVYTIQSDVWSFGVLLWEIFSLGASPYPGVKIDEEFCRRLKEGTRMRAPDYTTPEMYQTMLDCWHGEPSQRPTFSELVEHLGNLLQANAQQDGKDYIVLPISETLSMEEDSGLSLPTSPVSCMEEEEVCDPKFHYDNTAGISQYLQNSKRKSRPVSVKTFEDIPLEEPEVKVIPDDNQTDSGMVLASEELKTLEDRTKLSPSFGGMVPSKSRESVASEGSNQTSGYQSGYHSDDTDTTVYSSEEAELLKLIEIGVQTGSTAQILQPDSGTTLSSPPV
From the text: as §1
In the case of VEGF receptor KDR a 1.6-kb cDNA corresponding to the catalytic domain of VEGFR2 or KDR (Genbank accession number AF035121 amino acid 806 to 1356) is cloned into the Pst I site of the pDEST20 Gateway vector (Invitrogen) for the production of a GST-tagged version of that enzyme. This construct is used to generate recombinant baculovirus using the Bac-to-Bac system according to the manufacturer's instructions (Invitrogen).
as §2, with “GST-VEGFR2806-1356” for “c-Met IC”, “Sf9” for “Hi-5”, “(Spodoptera frugiperda)” for “(Trichoplusia Ni)”, “0.1” for “0.2”
All steps described in cell extraction and purification are performed at 4° C. Frozen Sf9 cell pellets infected with the GST-VEGFR2806-1356 recombinant baculovirus re thawed and gently resuspended in Buffer A (PBS pH 7.3 supplemented with 1 μg/ml pepstatin, 2 μg/ml Aprotinin and leupeptin, 50 μg/ml PMSF, 50 μg/ml TLCK and 10 μM E64 and 0.5 mM DTT) using 3 ml of buffer per gram of cells. Suspension is Dounce homogenized and 1% Triton X-100 is added to the homogenate after which it is centrifuged at 22500 g, 30 min., 4° C. The supernatant (cell extract) is used as starting material for purification of GST-VEGFR2806-1356.
The supernatant is loaded onto a GST-agarose column (Sigma) equilibrated with PBS pH 7.3. Following a four column volume (CV) wash with PBS pH 7.3+1% Triton X-100 and 4 CV wash with buffer B (50 mM Tris pH 8.0, 20% glycerol and 100 mM NaCl), bound proteins are step eluted with 5 CV of buffer B supplemented with 5 mM DTT and 15 mM glutathion. GST-VEGFR2806-1356 enriched fractions from this chromatography step are pooled based on U.V. trace i.e. fractions with high O.D^-280- Final GST-VEGFR2806-1356 protein preparations concentrations are about 0.7 mg/ml with purity approximating 70%. Purified GST-VEGFR2806-1356 protein stocks are aliquoted and frozen at −80° C. prior to use in enzymatic assay.
Inhibition of c-Met/HGF receptor and VEGFR/KDR is measured in a DELFIA™ assay (Perkin Elmer). The substrate poly(Glu4,Tyr) is immobilized onto black high-binding polystyrene 96-well plates. The coated plates are washed and stored at 4° C. During the assay, enzymes are pre-incubated with inhibitor and Mg-ATP on ice in polypropylene 96-well plates for 4 minutes, and then transferred to the coated plates. The subsequent kinase reaction takes place at 30° C. for 10-30 minutes. ATP concentrations in the assay are 10 uM for C-Met (5× the Km) and 0.6 uM for VEGFR/KDR (2× the Km). Enzyme concentration is 25 nM (C-Met) or 5 nM (VEGFR/KDR). After incubation, the kinase reactions are quenched with EDTA and the plates are washed. Phosphorylated product is detected by incubation with Europium-labeled anti-phosphotyrosine MoAb. After washing the plates, bound MoAb is detected by time-resolved fluorescence in a Gemini SpectraMax reader (Molecular Devices). Compounds are evaluated over a range of concentrations and IC50's (concentration of compounds giving 50% inhibition of enzymatic activity) are determined.

DU145 = DU145 scattering inhibition; details: Homo sapiens, DU-145; DU145 cells; read-out: Potency in cell-based assays DU145 scattering inhibition

T1 sequence (P08581 1078-1337): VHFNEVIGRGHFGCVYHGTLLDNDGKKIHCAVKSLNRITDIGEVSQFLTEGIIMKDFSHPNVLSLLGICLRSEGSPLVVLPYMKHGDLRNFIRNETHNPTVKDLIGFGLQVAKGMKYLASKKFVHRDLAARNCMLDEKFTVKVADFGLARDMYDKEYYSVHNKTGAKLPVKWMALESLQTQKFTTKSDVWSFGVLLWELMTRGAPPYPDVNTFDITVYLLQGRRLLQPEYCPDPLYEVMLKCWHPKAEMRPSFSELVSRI

Row | IC50 [1] [nM] | IC50 (A549) [nM] | IC50 (VEGF receptor KDR) [nM] | IC50 (DU145) [nM] | SMILES
1 | 500 to 1000 | 1000 to 5000 | ≥ 1000 | 1000 to 5000 | CNC(=O)c1cc(Oc2ccc(NC(=O)N3CCN(c4ccc(F)cc4)C3=O)cc2F)ccn1 [Compound 87b, 4-(2-fluoro-4-(3-(4-fluorophenyl)-2-oxoimidazolidine-1-carboxamido)phenoxy)-N-methylpicolinamide]
2 | ≥ 1000 | > 10000 | ≥ 1000 | > 10000 | O=C(NCCN1CCOCC1)c1cc(Oc2ccc(NC(=O)N3CCN(c4ccccc4)C3=O)cc2F)ccn1 [Compound 87c]
